Measurements published in PubChem BioAssay (NCI).
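All cell lines were grown in 96-well plates and treated with compound for 48 hours. GI50 is the concentration that inhibits growth by half. TGI is the concentration that stops growth completely.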

Legend:
Assay in all cases: inhibition of tumour cell growth, NCI panel, 48 h
SK-OV-3 ovarian = test system: SK-OV-3 ovarian
MDA-MB-435 = test system: MDA-MB-435
HS 578T breast = test system: HS 578T breast
MCF7 breast = test system: MCF7 breast
DLD-1 colon = test system: DLD-1 colon
M19-MEL melanoma = test system: M19-MEL melanoma
DMS 273 small cell lung = test system: DMS 273 small cell lung
LXFL 529 NSCLC = test system: LXFL 529 NSCLC
SNB-78 CNS = test system: SNB-78 CNS

SMILES: COc1cc[nH]c1/C=C1\C(=O)Nc2ccc(F)c(C#CC3(O)CCNCC3)c21
- GI50 (SK-OV-3 ovarian): 0.0172 µM
- TGI (SK-OV-3 ovarian): 2.61 µM
- GI50 (MDA-MB-435): 0.0745 µM
- TGI (MDA-MB-435): 0.504 µM
- GI50 (HS 578T breast): 0.0754 µM
- TGI (HS 578T breast): 1.54 µM
- GI50 (MCF7 breast): 111 nM
- TGI (MCF7 breast): 1.9 µM

SMILES: O=C(O)C(CS)Nc1c2ccccc2nc2ccccc12 (stereo unspecified)
- TGI (SK-OV-3 ovarian): > 100 µM
- TGI (DLD-1 colon): > 100 µM
- TGI (M19-MEL melanoma): > 100 µM
- TGI (DMS 273 small cell lung): > 100 µM
- TGI (LXFL 529 NSCLC): > 100 µM

SMILES: Cc1ccc(-c2nc3nc(-c4ccccc4)nc(N4CCCNCC4)c3o2)cc1
- GI50 (SK-OV-3 ovarian): 1.81 µM
- TGI (SK-OV-3 ovarian): 3.27 µM
- GI50 (MDA-MB-435): 1.93 µM
- TGI (MDA-MB-435): 3.42 µM
- GI50 (HS 578T breast): 1.83 µM
- TGI (HS 578T breast): 4.02 µM
- GI50 (MCF7 breast): 1480 nM
- TGI (MCF7 breast): 3.5 µM

SMILES: CCCC(=O)OCC1OC(n2cnc3c(=S)nc[nH]c32)C(OC(=O)CCC)C1OC(=O)CCC (stereo unspecified)
- GI50 (SK-OV-3 ovarian): 0.804 µM
- TGI (SK-OV-3 ovarian): 69.8 µM
- GI50 (MDA-MB-435): 3.55 µM
- TGI (MDA-MB-435): > 100 µM
- GI50 (HS 578T breast): > 100 µM
- TGI (HS 578T breast): > 100 µM
- GI50 (MCF7 breast): 1950 nM
- TGI (MCF7 breast): > 100 µM

SMILES: CC/C=C\C[C@H](F)C/C=C1/C(=O)C=C[C@@H]1C/C=C\CCCC(=O)O
- GI50 (SK-OV-3 ovarian): 12.6 µM
- TGI (SK-OV-3 ovarian): > 32.5 µM
- GI50 (MDA-MB-435): 4.06 µM
- TGI (MDA-MB-435): 11.3 µM
- GI50 (HS 578T breast): 13 µM
- TGI (HS 578T breast): > 32.5 µM
- GI50 (MCF7 breast): 1320 nM
- TGI (MCF7 breast): > 32.5 µM

SMILES: Nc1nc2c(nnn2C2CC(O)C(CO)O2)c(=O)[nH]1 (stereo unspecified)
- GI50 (SK-OV-3 ovarian): 0.937 µM
- TGI (SK-OV-3 ovarian): > 23.4 µM
- GI50 (MDA-MB-435): 4.35 µM
- TGI (MDA-MB-435): > 100 µM
- GI50 (HS 578T breast): > 33.9 µM
- TGI (HS 578T breast): > 95.7 µM
- GI50 (MCF7 breast): 4210 nM
- TGI (MCF7 breast): > 100 µM

SMILES: Nc1nc(N(Cc2ccccc2)c2ccccc2)c2cn[nH]c2n1
- GI50 (SK-OV-3 ovarian): 3.73 µM
- TGI (SK-OV-3 ovarian): > 100 µM
- GI50 (MDA-MB-435): 2.63 µM
- TGI (MDA-MB-435): > 100 µM
- GI50 (HS 578T breast): 2.7 µM
- TGI (HS 578T breast): 7.91 µM
- GI50 (MCF7 breast): 4340 nM
- TGI (MCF7 breast): > 100 µM

SMILES: CCOC(=O)/C(=C\c1ccccc1)C(=O)O
- TGI (SNB-78 CNS): > 100 µM
- TGI (SK-OV-3 ovarian): > 100 µM
- TGI (M19-MEL melanoma): > 100 µM
- TGI (DMS 273 small cell lung): > 100 µM

SMILES: O=C1CCC(N2C(=O)c3ccccc3C2=O)C(=O)N1CO (stereo unspecified)
- GI50 (SK-OV-3 ovarian): > 100 µM
- TGI (SK-OV-3 ovarian): > 100 µM
- GI50 (MDA-MB-435): > 100 µM
- TGI (MDA-MB-435): > 100 µM
- GI50 (HS 578T breast): > 100 µM
- TGI (HS 578T breast): > 100 µM
- GI50 (MCF7 breast): 26600 nM
- TGI (MCF7 breast): > 100 µM

SMILES: CCOC1Oc2ccc(C)cc2C(=O)/C1=C\Nc1ccc(C(N)=O)cc1 (stereo unspecified)
- GI50 (SK-OV-3 ovarian): 21.1 µM
- TGI (SK-OV-3 ovarian): > 100 µM
- GI50 (MDA-MB-435): 20.1 µM
- TGI (MDA-MB-435): 50.8 µM
- GI50 (HS 578T breast): 22.8 µM
- TGI (HS 578T breast): 64.4 µM
- GI50 (MCF7 breast): 25000 nM
- TGI (MCF7 breast): > 100 µM

SMILES: O=C(O)CCSC(=O)Nc1ccc([N+](=O)[O-])cc1
- TGI (SNB-78 CNS): > 100 µM
- TGI (DLD-1 colon): > 100 µM
- TGI (DMS 273 small cell lung): > 100 µM
- TGI (LXFL 529 NSCLC): > 100 µM

SMILES: CC[C@@]1(c2ccccc2)C2=C(CC(C)(C)CC2=O)Nc2[nH]ncc21
- GI50 (SK-OV-3 ovarian): > 100 µM
- TGI (SK-OV-3 ovarian): > 100 µM
- GI50 (MDA-MB-435): > 100 µM
- TGI (MDA-MB-435): > 100 µM
- GI50 (HS 578T breast): 96.4 µM
- TGI (HS 578T breast): > 100 µM
- GI50 (MCF7 breast): > 100000 nM
- TGI (MCF7 breast): > 100 µM

SMILES: COc1cc2ncn(-c3cc(OCc4cccs4)c(C(N)=O)s3)c2cc1OC
- GI50 (SK-OV-3 ovarian): 1.81 µM
- TGI (SK-OV-3 ovarian): > 20 µM
- GI50 (MDA-MB-435): 0.502 µM
- TGI (MDA-MB-435): 1.71 µM
- GI50 (HS 578T breast): 5.94 µM
- TGI (HS 578T breast): > 25 µM
- GI50 (MCF7 breast): 752 nM
- TGI (MCF7 breast): > 12.5 µM

SMILES: CCN(CC)C(c1ccc(N(C)C)cc1)C(c1ccc(N(C)C)cc1)N(CC)CC (stereo unspecified)
- TGI (SNB-78 CNS): > 73 µM
- TGI (SK-OV-3 ovarian): > 73 µM
- TGI (M19-MEL melanoma): > 73 µM
- TGI (DMS 273 small cell lung): > 73 µM
- TGI (LXFL 529 NSCLC): > 73 µM

SMILES: COc1ccc2nc3c(C(=O)NCCN(C)C)cccc3nc2c1
- TGI (SNB-78 CNS): 72 µM
- TGI (SK-OV-3 ovarian): 47.4 µM
- TGI (DLD-1 colon): > 1 µM
- TGI (M19-MEL melanoma): 22.2 µM
- TGI (DMS 273 small cell lung): 23.8 µM

SMILES: O=C(CC1(O)C(=O)Nc2c(Cl)ccc(Cl)c21)c1ccc(F)cc1 (stereo unspecified)
- TGI (SNB-78 CNS): > 100 µM
- TGI (SK-OV-3 ovarian): > 100 µM
- TGI (DLD-1 colon): > 100 µM
- TGI (DMS 273 small cell lung): > 100 µM
- TGI (LXFL 529 NSCLC): 92.1 µM

SMILES: O=C1Nc2ccccc2C1(c1ccc(O)cc1)c1ccc(O)cc1
- GI50 (SK-OV-3 ovarian): 22.8 µM
- TGI (SK-OV-3 ovarian): 54.2 µM
- GI50 (MDA-MB-435): 23 µM
- TGI (MDA-MB-435): 71.3 µM
- GI50 (HS 578T breast): 0.0932 µM
- TGI (HS 578T breast): 0.298 µM
- GI50 (MCF7 breast): 378 nM
- TGI (MCF7 breast): 27.8 µM

SMILES: COc1cc(C(=O)CBr)c(OC)cc1C
- TGI (SK-OV-3 ovarian): > 100 µM
- TGI (MDA-MB-435): > 100 µM
- TGI (HS 578T breast): > 100 µM
- TGI (MCF7 breast): > 100 µM

SMILES: C=C(C[C@](O)(C(=O)/C=C/c1ccc(Cl)cc1)C(=O)OC)c1ccccc1
- GI50 (SK-OV-3 ovarian): 11.1 µM
- TGI (SK-OV-3 ovarian): 23.1 µM
- GI50 (MDA-MB-435): 1.95 µM
- TGI (MDA-MB-435): 4.84 µM
- GI50 (HS 578T breast): 4.11 µM
- TGI (HS 578T breast): 34.6 µM
- GI50 (MCF7 breast): 456 nM
- TGI (MCF7 breast): 4.38 µM

SMILES: O=C(Nc1ccncc1)C(=O)c1cn(S(=O)(=O)c2cccc(F)c2)c2ccccc12
- GI50 (SK-OV-3 ovarian): 20.3 µM
- TGI (SK-OV-3 ovarian): 76.5 µM
- GI50 (MDA-MB-435): 0.385 µM
- TGI (MDA-MB-435): 4.02 µM
- GI50 (HS 578T breast): 8.31 µM
- TGI (HS 578T breast): > 100 µM
- GI50 (MCF7 breast): 719 nM
- TGI (MCF7 breast): > 100 µM

SMILES: CCc1ccccc1NC(=O)C1=C(C)NC(C)=C(C(=O)Nc2ccccc2CC)C1c1ccc2c(c1)OCO2
- TGI (SNB-78 CNS): > 100 µM
- TGI (SK-OV-3 ovarian): > 100 µM
- TGI (DLD-1 colon): > 100 µM
- TGI (M19-MEL melanoma): > 100 µM
- TGI (LXFL 529 NSCLC): 98.4 µM
